# Test results published in article PMC9019041, “Structural insights into the peptide selectivity and activation of human neuromedin U receptors” (Nature Communications, 2022).
# Where two headings read alike, the source gives them in different places. Where no end group is shown, it is not given here.
# How the values were obtained:
# Assay type in all cases: cell-based
# [1] = molecular target: T1, NMUR2 D287A (Homo sapiens, UniProt Q9GZQ4, D287A); test: IP-One assay, NMUR2 D287A; details: mean ± S.E.M., three independent experiments (n=3), SEM, read-out: IP1 accumulation pEC50 ± S.E.M. (converted)
# T1 construct: expressed in transfected cells; host or cells: AD293 cells
# Procedure: (§1) IP-One production was measured using the IP-One HTRF kit (Cisbio)[62]. Briefly, AD293 cells (Agilent) were grown to a density of 400,000–500,000 cells per mL and then infected with separate plasmids at a suitable concentration. The culture was collected by centrifugation 24 h after incubation at 37 °C in 5% CO2 with a Stimulation Buffer. The cell suspension was then dispensed in a white 384-well plate at a volume of 7 μl per well before adding 7 μl of ligands. The mixture was incubated for 1 h at 37 °C. IP-One-d2 and anti-IP-One Cryptate dissolved in Lysis Buffer (3 μl each) were subsequently added and incubated for 15-30 min at room temperature before measurement. Intracellular IP-One measurement was carried with the IP-One HTRF kit and EnVision multi-plate reader (PerkinElmer) according to the manufacturer’s instructions. Data were normalized to the baseline response of the ligand.
# (§2) The significance was determined with two-side, one-way ANOVA with Tukey’s test, and ^*P < 0.05 was considered statistically significant.
# [2] = molecular target: T2, NMUR2 F284A (Homo sapiens, UniProt Q9GZQ4, F284A); test: IP-One assay, NMUR2 F284A; details: mean ± S.E.M., three independent experiments (n=3), SEM, read-out: IP1 accumulation pEC50 ± S.E.M. (converted)
# T2 construct: expressed in transfected cells; host or cells: AD293 cells
# Procedure: as §1, §2
# [3] = molecular target: T3, NMUR2 N306A (Homo sapiens, UniProt Q9GZQ4, N306A); test: IP-One assay, NMUR2 N306A; details: mean ± S.E.M., three independent experiments (n=3), SEM, read-out: IP1 accumulation pEC50 ± S.E.M. (converted)
# T3 construct: expressed in transfected cells; host or cells: AD293 cells
# Procedure: as §1, §2
# [4] = molecular target: T4, NMUR2 T123A (Homo sapiens, UniProt Q9GZQ4, T123A); test: IP-One assay, NMUR2 T123A; details: mean ± S.E.M., three independent experiments (n=3), SEM, read-out: IP1 accumulation pEC50 ± S.E.M. (converted)
# T4 construct: expressed in transfected cells; host or cells: AD293 cells
# Procedure: as §1, §2
# [5] = molecular target: T5, NMUR2 Y317A (Homo sapiens, UniProt Q9GZQ4, Y317A); test: IP-One assay, NMUR2 Y317A; details: mean ± S.E.M., three independent experiments (n=3), SEM, read-out: IP1 accumulation pEC50 ± S.E.M. (converted)
# T5 construct: expressed in transfected cells; host or cells: AD293 cells (Agilent)
# Procedure: as §1, §2
# [6] = molecular target: T6, NMUR2 Y213A (Homo sapiens, UniProt Q9GZQ4, Y213A); test: IP-One assay, NMUR2 Y213A; details: mean ± S.E.M., three independent experiments (n=3), SEM, read-out: IP1 accumulation pEC50 ± S.E.M. (converted)
# T6 construct: expressed in transfected cells; host or cells: AD293 cells
# Procedure: as §1, §2
# [7] = molecular target: T7, NMUR2 W297A (Homo sapiens, UniProt Q9GZQ4, W297A); test: IP-One assay, NMUR2 W297A; details: mean ± S.E.M., three independent experiments (n=3), SEM, read-out: IP1 accumulation pEC50 ± S.E.M. (converted)
# T7 construct: expressed in transfected cells; host or cells: AD293 cells
# Procedure: as §1, §2
# [8] = molecular target: T8, NMUR2 S312A (Homo sapiens, UniProt Q9GZQ4, S312A); test: IP-One assay, NMUR2 S312A; details: mean ± S.E.M., three independent experiments (n=3), SEM, read-out: IP1 accumulation pEC50 ± S.E.M. (converted)
# T8 construct: expressed in transfected cells; host or cells: AD293 cells
# Procedure: as §1, §2
# [9] = molecular target: T9, NMUR1 H200A (Homo sapiens, UniProt Q9HB89, H200A); test: IP-One assay, NMUR1 H200A; details: mean ± S.E.M., three independent experiments (n=3), SEM, read-out: IP1 accumulation pEC50 ± S.E.M. (converted)
# T9 construct: The full-length human NMUR1 and NMUR2 were modified; expressed in transfected cells; host or cells: AD293 cells
# Procedure: as §1, §2
# [10] = molecular target: T10, NMUR1 WT (Homo sapiens, UniProt Q9HB89); test: IP-One assay, NMUR1 WT
# T10 construct: The full-length human NMUR1 and NMUR2 were modified; expressed in transfected cells; host or cells: AD293 cells
# Procedure: as §1, §2
# [11] = molecular target: T11, NMUR2 F291A (Homo sapiens, UniProt Q9GZQ4, F291A); test: IP-One assay, NMUR2 F291A; details: mean ± S.E.M., three independent experiments (n=3), SEM, read-out: IP1 accumulation pEC50 ± S.E.M. (converted)
# T11 construct: expressed in transfected cells; host or cells: AD293 cells
# Procedure: as §1, §2
# [12] = molecular target: T12, NMUR2 E102A (Homo sapiens, UniProt Q9GZQ4, E102A); test: IP-One assay, NMUR2 E102A; details: mean ± S.E.M., three independent experiments (n=3), SEM, read-out: IP1 accumulation pEC50 ± S.E.M. (converted)
# T12 construct: expressed in transfected cells; host or cells: AD293 cells
# Procedure: as §1, §2
# [13] = molecular target: T13, NMUR1 N124A (Homo sapiens, UniProt Q9HB89, N124A); test: IP-One assay, NMUR1 N124A; details: mean ± S.E.M., three independent experiments (n=3), SEM, read-out: IP1 accumulation pEC50 ± S.E.M. (converted)
# T13 construct: The full-length human NMUR1 and NMUR2 were modified; expressed in transfected cells; host or cells: AD293 cells
# Procedure: as §1, §2
# [14] = molecular target: T14, NMUR2 T203A (Homo sapiens, UniProt Q9GZQ4, T203A); test: IP-One assay, NMUR2 T203A; details: mean ± S.E.M., three independent experiments (n=3), SEM, read-out: IP1 accumulation pEC50 ± S.E.M. (converted)
# T14 construct: expressed in transfected cells; host or cells: AD293 cells
# Procedure: as §1, §2
# [15] = molecular target: T15, NMUR2 WT (Homo sapiens, UniProt Q9GZQ4); test: IP-One assay, NMUR2 WT
# T15 construct: The full-length human NMUR1 and NMUR2 were modified; expressed in transfected cells; host or cells: AD293 cells
# Procedure: as §1, §2
# [16] = molecular target: T16, NMUR1 L59A (Homo sapiens, UniProt Q9HB89, L59A); test: IP-One assay, NMUR1 L59A; details: mean ± S.E.M., three independent experiments (n=3), SEM, read-out: IP1 accumulation pEC50 ± S.E.M. (converted)
# T16 construct: The full-length human NMUR1 and NMUR2 were modified; expressed in transfected cells; host or cells: AD293 cells
# Procedure: as §1, §2
# [17] = molecular target: T17, NMUR2 M106A (Homo sapiens, UniProt Q9GZQ4, M106A); test: IP-One assay, NMUR2 M106A; details: mean ± S.E.M., three independent experiments (n=3), SEM, read-out: IP1 accumulation pEC50 ± S.E.M. (converted)
# T17 construct: expressed in transfected cells; host or cells: AD293 cells
# Procedure: as §1, §2
# [18] = molecular target: T18, NMUR2 Y110A (Homo sapiens, UniProt Q9GZQ4, Y110A); test: IP-One assay, NMUR2 Y110A; details: mean ± S.E.M., three independent experiments (n=3), SEM, read-out: IP1 accumulation pEC50 ± S.E.M. (converted)
# T18 construct: expressed in transfected cells; host or cells: AD293 cells
# Procedure: as §1, §2
# [19] = molecular target: T19, NMUR1 F313A (Homo sapiens, UniProt Q9HB89, F313A); test: IP-One assay, NMUR1 F313A; details: mean ± S.E.M., three independent experiments (n=3), SEM, read-out: IP1 accumulation pEC50 ± S.E.M. (converted)
# T19 construct: The full-length human NMUR1 and NMUR2 were modified; expressed in transfected cells; host or cells: AD293 cells
# Procedure: as §1, §2
# [20] = molecular target: T20, NMUR2 Y52A (Homo sapiens, UniProt Q9GZQ4, Y52A); test: IP-One assay, NMUR2 Y52A; details: mean ± S.E.M., three independent experiments (n=3), SEM, read-out: IP1 accumulation pEC50 ± S.E.M. (converted)
# T20 construct: expressed in transfected cells; host or cells: AD293 cells
# Procedure: as §1, §2
# [21] = molecular target: T21, NMUR1 E117A (Homo sapiens, UniProt Q9HB89, E117A); test: IP-One assay, NMUR1 E117A; details: mean ± S.E.M., three independent experiments (n=3), SEM, read-out: IP1 accumulation pEC50 ± S.E.M. (converted)
# T21 construct: The full-length human NMUR1 and NMUR2 were modified; expressed in transfected cells; host or cells: AD293 cells
# Procedure: as §1, §2
# [22] = molecular target: T22, NMUR1 M121A (Homo sapiens, UniProt Q9HB89, M121A); test: IP-One assay, NMUR1 M121A; details: mean ± S.E.M., three independent experiments (n=3), SEM, read-out: IP1 accumulation pEC50 ± S.E.M. (converted)
# T22 construct: The full-length human NMUR1 and NMUR2 were modified; expressed in transfected cells; host or cells: AD293 cells
# Procedure: as §1, §2
# [23] = molecular target: T23, NMUR2 K122A (Homo sapiens, UniProt Q9GZQ4, K122A); test: IP-One assay, NMUR2 K122A; details: mean ± S.E.M., three independent experiments (n=3), SEM, read-out: IP1 accumulation pEC50 ± S.E.M. (converted)
# T23 construct: expressed in transfected cells; host or cells: AD293 cells
# Procedure: as §1, §2
# T15 sequence (Q9GZQ4 whole entry): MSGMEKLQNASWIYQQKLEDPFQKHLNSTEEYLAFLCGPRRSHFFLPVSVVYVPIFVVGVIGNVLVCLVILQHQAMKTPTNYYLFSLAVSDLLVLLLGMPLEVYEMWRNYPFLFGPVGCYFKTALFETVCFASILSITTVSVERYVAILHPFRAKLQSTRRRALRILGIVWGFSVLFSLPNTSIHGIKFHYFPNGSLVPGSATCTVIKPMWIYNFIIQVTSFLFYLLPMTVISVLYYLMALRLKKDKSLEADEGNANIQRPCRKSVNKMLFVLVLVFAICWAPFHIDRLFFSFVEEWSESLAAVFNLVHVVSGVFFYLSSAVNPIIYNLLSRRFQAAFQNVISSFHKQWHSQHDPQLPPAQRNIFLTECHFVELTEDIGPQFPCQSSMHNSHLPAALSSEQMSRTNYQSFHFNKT
# T10 sequence (Q9HB89 whole entry): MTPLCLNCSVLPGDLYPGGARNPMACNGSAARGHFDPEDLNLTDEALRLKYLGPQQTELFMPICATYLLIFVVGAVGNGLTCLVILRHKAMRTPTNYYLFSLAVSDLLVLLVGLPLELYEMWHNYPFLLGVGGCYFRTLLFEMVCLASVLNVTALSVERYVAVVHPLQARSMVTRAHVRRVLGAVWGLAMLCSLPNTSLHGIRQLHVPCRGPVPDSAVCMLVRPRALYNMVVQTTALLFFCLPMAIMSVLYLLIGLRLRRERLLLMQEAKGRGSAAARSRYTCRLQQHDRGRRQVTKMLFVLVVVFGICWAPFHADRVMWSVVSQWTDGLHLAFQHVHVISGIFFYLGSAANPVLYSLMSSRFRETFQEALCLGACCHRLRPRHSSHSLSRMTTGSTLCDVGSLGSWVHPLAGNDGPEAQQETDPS
# T3 sequence (Q9GZQ4 whole entry N306A): as the sequence (Q9GZQ4 whole entry) above, with N306A counted along it
# T5 sequence (Q9GZQ4 whole entry Y317A): as the sequence (Q9GZQ4 whole entry) above, with Y317A counted along it
# T22 sequence (Q9HB89 whole entry M121A): as the sequence (Q9HB89 whole entry) above, with M121A counted along it
# T7 sequence (Q9GZQ4 whole entry W297A): as the sequence (Q9GZQ4 whole entry) above, with W297A counted along it
# T19 sequence (Q9HB89 whole entry F313A): as the sequence (Q9HB89 whole entry) above, with F313A counted along it
# T1 sequence (Q9GZQ4 whole entry D287A): as the sequence (Q9GZQ4 whole entry) above, with D287A counted along it
# T23 sequence (Q9GZQ4 whole entry K122A): as the sequence (Q9GZQ4 whole entry) above, with K122A counted along it
# T20 sequence (Q9GZQ4 whole entry Y52A): as the sequence (Q9GZQ4 whole entry) above, with Y52A counted along it
# T4 sequence (Q9GZQ4 whole entry T123A): as the sequence (Q9GZQ4 whole entry) above, with T123A counted along it
# T12 sequence (Q9GZQ4 whole entry E102A): as the sequence (Q9GZQ4 whole entry) above, with E102A counted along it
# T9 sequence (Q9HB89 whole entry H200A): as the sequence (Q9HB89 whole entry) above, with H200A counted along it
# T21 sequence (Q9HB89 whole entry E117A): as the sequence (Q9HB89 whole entry) above, with E117A counted along it
# T6 sequence (Q9GZQ4 whole entry Y213A): as the sequence (Q9GZQ4 whole entry) above, with Y213A counted along it
# T18 sequence (Q9GZQ4 whole entry Y110A): as the sequence (Q9GZQ4 whole entry) above, with Y110A counted along it
# T11 sequence (Q9GZQ4 whole entry F291A): as the sequence (Q9GZQ4 whole entry) above, with F291A counted along it
# T13 sequence (Q9HB89 whole entry N124A): as the sequence (Q9HB89 whole entry) above, with N124A counted along it
# T2 sequence (Q9GZQ4 whole entry F284A): as the sequence (Q9GZQ4 whole entry) above, with F284A counted along it
# T17 sequence (Q9GZQ4 whole entry M106A): as the sequence (Q9GZQ4 whole entry) above, with M106A counted along it
# T14 sequence (Q9GZQ4 whole entry T203A): as the sequence (Q9GZQ4 whole entry) above, with T203A counted along it
# T16 sequence (Q9HB89 whole entry L59A): as the sequence (Q9HB89 whole entry) above, with L59A counted along it
# T8 sequence (Q9GZQ4 whole entry S312A): as the sequence (Q9GZQ4 whole entry) above, with S312A counted along it
substance,measurement,setting,value
"FRVDEEFQSPFASQSRGYFLFRPRN-NH2 [NMU, neuromedin U]",EC50,[1],1.15 nM
same,EC50,[2],7.08 nM
same,EC50,[3],10 nM
same,EC50,[4],9.77 nM
same,EC50,[5],2.63 nM
same,EC50,[6],7.24 nM
same,EC50,[7],66.1 nM
same,EC50,[8],2.45 nM
same,EC50,[9],41.7 nM
same,EC50,"[10]; NMUR1 WT, mean ± S.E.M., three independent experiments (n=3), SEM, read-out: IP1 accumulation pEC50 ± S.E.M. (converted)",3.55 nM
same,EC50,"[10]; wild-type (WT) NMUR1, Supplementary Fig. 1, three independent experiments, read-out: pEC50 of NMU (converted)",4.47 nM
same,EC50,[11],4.68 nM
same,EC50,[12],30.9 nM
same,EC50,[13],6.92 nM
same,EC50,[14],0.891 nM
same,EC50,"[15]; NMUR2 WT, mean ± S.E.M., three independent experiments (n=3), SEM, read-out: IP1 accumulation pEC50 ± S.E.M. (converted)",0.631 nM
same,EC50,"[15]; WT NMUR2, Supplementary Fig. 1, three independent experiments, read-out: pEC50 of NMU (converted)",3.02 nM
same,EC50,[16],110 nM
same,EC50,[17],19.5 nM
same,EC50,[18],186 nM
same,EC50,[19],209 nM
same,EC50,[20],1 nM
same,EC50,[21],1070 nM
same,EC50,[22],51.3 nM
same,EC50,[23],61.7 nM
